Measured values as given in US6624182B1, “Hydroxyphenylvinylthiazoles” (Ciba Specialty Chemicals Corporation, priority 1999, dated 2003).

Experiments:
Assay in all cases: Determination of the minimum inhibitory concentration (MIC value) in microtitre plates
P. aeruginosa = format: cell-based, Pseudomonas aeruginosa CIP A-22; settings: optical density at 620 nm, 48 hours at 37° C., MIC = ≦20% growth; tested at 100; 10 and 1 ppm (approximate values); (2), (3), (4) at 120; 60; 30; 15; 7.5; 3.75 ppm
Procedure: (§1) Determination of the Minimum Inhibitory Concentration (MIC Value) in Microtitre Plates Nutrient Medium Casein/soybean flour/peptone bouillon for the preparation of preliminary cultures of the test bacteria and yeast. Mycological slant agar for the preliminary culture of moulds Examples of Test Microbes: Bacteria: Pseudomonas aeruginosa CIP A-22 Procedure: The test substances are pre-dissolved in dimethyl sulfoxide (DMSO) and tested in a series of dilutions of 1:2. Bacteria and yeast are cultured overnight in CASO bouillon; the mould is cultured on myco-logical slant agar and sponged off with 10 ml of 0.85% sodium chloride solution (+0.1% Triton X-100). All the test microbes are adjusted to a germ count of 1−5×10^6 KBE/ml using 0.85% sodium chloride solution. The test substances are pre-pipetted into microtitre plates in an amount of 8 μl per well. Pre-diluted microbe suspensions are diluted 1:100 in CASO bouillon (bacteria and yeast) or Sabouraud 2% glucose bouillon (mould) and added to the test substances in an amount of 192 μl per well. The test batches are incubated for 48 hours at 37° C. (bacteria and yeast) or for 5 days at 28° C. (mould). After incubation, the growth is determined by means of the clouding of the test batches (optical density) at 620 nm in a microplate reader. The concentration of substance at which (compared with the growth control) a marked inhibition of growth (≦20% growth) of the test microbes can be observed is given as the minimum inhibitory concentration (MIC value). One microtitre plate is used per test microbe and substance concentration. All substances are tested in duplicate.

S. aureus = format: cell-based; settings: optical density at 620 nm, 48 hours at 37° C., MIC = ≦20% growth; tested at 100; 10 and 1 ppm (approximate values); (2), (3), (4) at 120; 60; 30; 15; 7.5; 3.75 ppm
Text: as §1, with “Staphylococcus hominis DMS 20328” for “Pseudomonas aeruginosa CIP A-22”

E. coli = format: cell-based, Escherichia coli NCTC 8196; settings: optical density at 620 nm, 48 hours at 37° C., MIC = ≦20% growth; tested at 100; 10 and 1 ppm (approximate values); (2), (3), (4) at 120; 60; 30; 15; 7.5; 3.75 ppm
Procedure: as §1, with “Escherichia coli NCTC 8196” for “Pseudomonas aeruginosa CIP A-22”

A. niger = format: cell-based, Aspergillus niger ATCC 6275; settings: optical density at 620 nm, 5 days at 28° C., MIC = ≦20% growth; tested at 100; 10 and 1 ppm (approximate values); (2), (3), (4) at 120; 60; 30; 15; 7.5; 3.75 ppm
Procedure: as §1, with “Mould: Aspergillus niger ATCC 6275” for “Bacteria: Pseudomonas aeruginosa CIP A-22”

C. albicans = format: cell-based, Candida albicans ATCC 10231; settings: optical density at 620 nm, 48 hours at 37° C., MIC = ≦20% growth; tested at 100; 10 and 1 ppm (approximate values); (2), (3), (4) at 120; 60; 30; 15; 7.5; 3.75 ppm
Procedure: as §1, with “Yeast: Candida albicans ATCC 10231” for “Bacteria: Pseudomonas aeruginosa CIP A-22”

Oc1cccc(/C=C/c2nc(-c3ccc(F)cc3)cs2)c1 [Compound of formula (5)]
>100 ppm: MIC values in ppm P. aeruginosa (P. aeruginosa) | MIC values in ppm S. aureus (S. aureus) | MIC values in ppm E. coli (E. coli) | MIC values in ppm A. niger (A. niger) | MIC values in ppm C. albicans (C. albicans)

COc1ccc(/C=C/c2nc(-c3ccc(F)cc3)cs2)cc1O [Compound of formula (6)]
>100 ppm: MIC values in ppm P. aeruginosa (P. aeruginosa) | MIC values in ppm S. aureus (S. aureus) | MIC values in ppm E. coli (E. coli) | MIC values in ppm A. niger (A. niger) | MIC values in ppm C. albicans (C. albicans)

CCOc1cc(/C=C/c2nc(-c3ccc(F)cc3)cs2)ccc1O [Compound of formula (7)]
>100 ppm: MIC values in ppm P. aeruginosa (P. aeruginosa) | MIC values in ppm S. aureus (S. aureus) | MIC values in ppm E. coli (E. coli) | MIC values in ppm A. niger (A. niger) | MIC values in ppm C. albicans (C. albicans)

COc1cc(/C=C/c2nc(-c3ccc(F)cc3)cs2)ccc1O [Compound of formula (8)]
>100 ppm: MIC values in ppm P. aeruginosa (P. aeruginosa) | MIC values in ppm S. aureus (S. aureus) | MIC values in ppm E. coli (E. coli) | MIC values in ppm A. niger (A. niger) | MIC values in ppm C. albicans (C. albicans)

COc1ccc(/C=C/c2nc(-c3ccc(F)cc3)cs2)c(O)c1 [Compound of formula (9)]
>100 ppm: MIC values in ppm P. aeruginosa (P. aeruginosa) | MIC values in ppm S. aureus (S. aureus) | MIC values in ppm E. coli (E. coli) | MIC values in ppm A. niger (A. niger) | MIC values in ppm C. albicans (C. albicans)

Oc1ccccc1/C=C/c1nc(-c2ccc(F)cc2)cs1 [Compound of formula (10)]
>100 ppm: MIC values in ppm P. aeruginosa (P. aeruginosa) | MIC values in ppm S. aureus (S. aureus) | MIC values in ppm E. coli (E. coli) | MIC values in ppm A. niger (A. niger) | MIC values in ppm C. albicans (C. albicans)

COc1cc(/C=C/c2nc(-c3ccc(F)cc3)cs2)cc(O)c1OC [Compound of formula (11)]
>100 ppm: MIC values in ppm P. aeruginosa (P. aeruginosa) | MIC values in ppm S. aureus (S. aureus) | MIC values in ppm E. coli (E. coli) | MIC values in ppm A. niger (A. niger) | MIC values in ppm C. albicans (C. albicans)

Cc1cc(/C=C/c2nc(-c3ccc(F)cc3)cs2)cc(C)c1O [Compound of formula (12)]
>100 ppm: MIC values in ppm P. aeruginosa (P. aeruginosa) | MIC values in ppm S. aureus (S. aureus) | MIC values in ppm E. coli (E. coli) | MIC values in ppm A. niger (A. niger) | MIC values in ppm C. albicans (C. albicans)

Cc1cccc(/C=C/c2nc(-c3ccc(F)cc3)cs2)c1O [Compound of formula (13)]
>100 ppm: MIC values in ppm P. aeruginosa (P. aeruginosa) | MIC values in ppm S. aureus (S. aureus) | MIC values in ppm E. coli (E. coli) | MIC values in ppm A. niger (A. niger) | MIC values in ppm C. albicans (C. albicans)

Oc1cc(OCc2ccccc2)ccc1/C=C/c1nc(-c2ccc(F)cc2)cs1 [Compound of formula (14)]
>100 ppm: MIC values in ppm P. aeruginosa (P. aeruginosa) | MIC values in ppm S. aureus (S. aureus) | MIC values in ppm E. coli (E. coli) | MIC values in ppm A. niger (A. niger) | MIC values in ppm C. albicans (C. albicans)

COc1cc(O)ccc1/C=C/c1nc(-c2ccc(F)cc2)cs1 [Compound of formula (15)]
>100 ppm: MIC values in ppm P. aeruginosa (P. aeruginosa) | MIC values in ppm S. aureus (S. aureus) | MIC values in ppm E. coli (E. coli) | MIC values in ppm A. niger (A. niger) | MIC values in ppm C. albicans (C. albicans)

CC(C)(C)c1csc(/C=C/c2ccc(O)cc2)n1 [Compound of formula (16)]
>100 ppm: MIC values in ppm P. aeruginosa (P. aeruginosa) | MIC values in ppm S. aureus (S. aureus) | MIC values in ppm E. coli (E. coli) | MIC values in ppm A. niger (A. niger) | MIC values in ppm C. albicans (C. albicans)
